Read-outs that look alike come from different tables or passages of the source.
What was measured:
[1] = target: T1, S. aureus gyrase (Staphylococcus aureus, UniProt P0A0K8+P20831); experiment: DNA cleavage competition assay, gepotidacin vs moxifloxacin; type: biochemical; conditions: 100 μM gepotidacin plus 25 μM moxifloxacin
[2] = system: negatively supercoiled pBR322 DNA; experiment: DNA cleavage control without gyrase; conditions: 200 μM gepotidacin, 3 h incubation, no gyrase
[3] = target: T1, S. aureus gyrase
[4] = target: S. aureus gyrase-DNA cleavage complexes (Staphylococcus aureus, UniProt P0A0K8+P20831); experiment: Stability; conditions: 5 μM gepotidacin, 20-fold dilution into buffer lacking divalent metal ion
Sequence of S. aureus gyrase-DNA cleavage complexes (P20831 whole entry): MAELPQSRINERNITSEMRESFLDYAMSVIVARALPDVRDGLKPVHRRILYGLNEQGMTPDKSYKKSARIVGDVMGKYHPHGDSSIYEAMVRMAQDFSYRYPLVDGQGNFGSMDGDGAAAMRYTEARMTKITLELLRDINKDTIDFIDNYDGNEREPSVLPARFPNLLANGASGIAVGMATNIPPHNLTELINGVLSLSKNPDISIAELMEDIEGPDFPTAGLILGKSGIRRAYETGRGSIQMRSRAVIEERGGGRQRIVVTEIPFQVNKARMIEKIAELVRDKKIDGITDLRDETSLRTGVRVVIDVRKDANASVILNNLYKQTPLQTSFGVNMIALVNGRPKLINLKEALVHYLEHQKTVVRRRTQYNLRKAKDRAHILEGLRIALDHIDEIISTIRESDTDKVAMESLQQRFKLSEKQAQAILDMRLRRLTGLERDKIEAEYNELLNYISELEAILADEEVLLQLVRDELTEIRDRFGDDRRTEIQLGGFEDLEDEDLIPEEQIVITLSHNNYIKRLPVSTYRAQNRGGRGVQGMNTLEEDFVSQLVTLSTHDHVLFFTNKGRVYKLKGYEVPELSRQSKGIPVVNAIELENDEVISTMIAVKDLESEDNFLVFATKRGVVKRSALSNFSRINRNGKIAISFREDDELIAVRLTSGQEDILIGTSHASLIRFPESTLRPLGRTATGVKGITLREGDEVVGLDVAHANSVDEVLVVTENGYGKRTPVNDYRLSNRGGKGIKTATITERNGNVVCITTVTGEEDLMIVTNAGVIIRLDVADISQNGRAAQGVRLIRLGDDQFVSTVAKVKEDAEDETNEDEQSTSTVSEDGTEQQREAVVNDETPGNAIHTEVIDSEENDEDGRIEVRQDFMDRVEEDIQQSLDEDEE
Sequence of S. aureus gyrase-DNA cleavage complexes (P0A0K8 whole entry): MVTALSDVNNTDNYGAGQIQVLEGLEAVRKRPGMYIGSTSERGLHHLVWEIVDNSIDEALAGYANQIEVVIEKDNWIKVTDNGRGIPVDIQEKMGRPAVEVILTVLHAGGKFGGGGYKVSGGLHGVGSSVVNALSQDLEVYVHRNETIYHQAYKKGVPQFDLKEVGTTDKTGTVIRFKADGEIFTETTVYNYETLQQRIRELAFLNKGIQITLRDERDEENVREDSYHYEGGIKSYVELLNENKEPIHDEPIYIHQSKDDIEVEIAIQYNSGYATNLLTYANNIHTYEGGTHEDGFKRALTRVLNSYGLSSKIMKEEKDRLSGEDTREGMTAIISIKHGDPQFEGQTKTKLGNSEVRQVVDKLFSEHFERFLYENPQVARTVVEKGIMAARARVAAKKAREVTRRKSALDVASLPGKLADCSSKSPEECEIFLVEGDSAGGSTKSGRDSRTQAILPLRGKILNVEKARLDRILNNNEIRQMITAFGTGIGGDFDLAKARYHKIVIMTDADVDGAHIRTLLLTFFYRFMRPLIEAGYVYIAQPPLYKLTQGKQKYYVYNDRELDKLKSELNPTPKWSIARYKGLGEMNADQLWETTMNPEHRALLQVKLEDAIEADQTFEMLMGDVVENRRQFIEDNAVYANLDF

T1 sequence (P0A0K8 whole entry): as above
T1 sequence (P20831 whole entry): as the sequence (P20831 whole entry) above

SMILES	drop in levels of moxifloxacin-induced double-stranded breaks [1]	DNA cleavage when gyrase was left out [2]	type of DNA breaks at high concentration ([3]; 200 μM, time course 6 times longer than standard)	gyrase-mediated double-stranded DNA cleavage ([3]; 1.5 mM ATP)	type of DNA breaks created ([3]; 5 or 200 μM, negatively supercoiled DNA)	effect on double-stranded DNA cleavage in the presence of Ca2+ ([3]; MgCl2 replaced by CaCl2, increasing gepotidacin concentrations)	gyrase-mediated double-stranded DNA breaks ([3]; high gepotidacin concentration, long cleavage times, or presence of ATP)	levels of single-stranded breaks, positively vs negatively supercoiled plasmid ([3]; lower with positively supercoiled plasmid)	single-stranded DNA breaks, share of the initial substrate ([3]; negatively supercoiled plasmid, low micromolar concentrations)	gyrase-mediated double-stranded DNA breaks ([3]; positively supercoiled DNA)	stability of gyrase-DNA cleavage complexes [4] [h]	fall in potency with positively vs negatively supercoiled substrates ([3]; double-stranded breaks)
O=c1ccc2ncc(=O)n3c2n1C[C@H]3CN1CCC(NCc2cc3c(cn2)OCCC3)CC1 [Gepotidacin]	~ 95%	no DNA cleavage was observed	only single-stranded breaks were observed	no double-stranded DNA cleavage was observed	all of the breaks created in the presence of gepotidacin were single-stranded	coordinate decrease in levels of double-stranded DNA cleavage	No double-stranded breaks were observed	~ 2 fold	more than 30%	no double-stranded breaks were observed	> 4	
COc1c(N2C[C@@H]3CCCN[C@@H]3C2)c(F)cc2c(=O)c(C(=O)O)cn(C3CC3)c12 [moxifloxacin, reference compound]												~ 8 fold
